Laboratory results: patent publication US10040803B2, “4-((2-acrylamidophenyl)amino)thieno[3,2-D]pyrimidine-7-carboxamide derivatives as protein kinase inhibitors” (KOREA INSTITUTE OF SCIENCE AND TECHNOLOGY, priority 2016, dated 2018)

Assays:
Hep3B cells = assay: Inhibition of growth of liver cancer cell line Hep3B (CellTiter-Glo); assay type: cell-based; conditions: Homo sapiens, CellTiter-Glo luminescence
Description: (§1) The inhibition activity for liver cancer cell lines was measured for 4-((2-acrylamido-6-methylphenyl)amino)-N-(3,5-dimethoxyphenyl)thieno[3,2-d]pyrimidine-7-carboxamide (Compound 1) and 4-((2-acrylamido-6-methylphenyl)amino)-N-(2-methyl-5-(3-(trifluoromethyl)benzamido)phenyl)thieno[3,2-d]pyrimidine-7-carboxamide (Compound 2) synthesized in the present invention.
(§2) Hep3B or HUH7 cells were seeded onto a 96-well plate with 5,000 cells per well and then cultured overnight in F-12K Nutrient Mixture (Life Technologies Corporation) containing 10% FBS at 37° C. in the presence of 5% CO2. The test compound dissolved in dimethyl sulfoxide was diluted to a final concentration of 1-50 μM and then added to the 96-well plate. After culturing at 37° C. in the presence of 5% CO2 and adding a cell count reagent (CellTiter-Glo® Luminescent Cell Viability Assay), luminescence intensity was measured using a luminescence measuring apparatus (Envision).

HUH7 cells = assay: Inhibition of growth of liver cancer cell line HUH7 (CellTiter-Glo); assay type: cell-based; conditions: Homo sapiens, Huh-7, CellTiter-Glo luminescence
Description: as §1, §2

| Compound | GI50 (Hep3B cells) | GI50 (HUH7 cells) |
| --- | --- | --- |
| C=CC(=O)Nc1cccc(C)c1Nc1ncnc2c(C(=O)Nc3cc(OC)cc(OC)c3)csc12 [Compound 1, 4-((2-acrylamido-6-methylphenyl)amino)-N-(3,5-dimethoxyphenyl)thieno[3,2-d]pyrimidine-7-carboxamide] | < 10 µM | < 10 µM |
| C=CC(=O)Nc1cccc(C)c1Nc1ncnc2c(C(=O)Nc3cc(NC(=O)c4cccc(C(F)(F)F)c4)ccc3C)csc12 [Compound 2, 4-((2-acrylamido-6-methylphenyl)amino)-N-(2-methyl-5-(3-(trifluoromethyl)benzamido)phenyl)thieno[3,2-d]pyrimidine-7-carboxamide] | < 1 µM | < 1 µM |
